This is an account of results in patent US12365686B2, “Compound as porcupine inhibitor and use thereof” (JIANGSU KANION PHARMACEUTICAL CO., LTD., priority 2019, dated 2025).

Each structure is given as a SMILES string. Structures can show the parent of a compound that is named as a salt.

Series [1] deals with STF reporter gene for WNT pathway (Porcupine of the Wnt signaling pathway). Description: Inhibitory activity on Super-Top-Flash (STF) reporter gene. Type of series: cell-based. As to conditions: HEK293 STF and L wnt3A cells 1:1, 24 hours, Bright-Glo. The procedure: 1. Assay of Inhibitory Activity on Super-Top-Flash (STF) Reporter Gene
HEK293 STF and L wnt3A cells were planted at a ratio of 1:1 in a white 96-well plate with 80 μL of cell suspension per well, which contained 20,000 HEK293 STF cells and 20,000 L wnt3A cells. The cell plate was placed in a carbon dioxide incubator for culture overnight.
The assay compound was serially diluted 5-fold with a discharge gun to the 8th concentration, that is, from 400 μM to 5.12 nM, in duplicate. 78 μL of medium was added to the middle plate, and then 2 μL of the serially diluted compound was transferred to each well of the middle plate according to the corresponding position. After mixing, 20 μL of the mixture was transferred to each well of the cell plate. The cell plate was placed in a carbon dioxide incubator for 24 hours.
100 μL of Promega Bright-Glo reagent was added to each well of the cell plate, and the cell plate was incubated at room temperature for 10 minutes to stabilize the luminescence signal. A multi-label analyzer was used to read results.
The original data of the multi-label analyzer was used for calculation, and the value of IC50 can be obtained by curve fitting. Table 1 provides data of the inhibitory activity of the compounds of the present disclosure on the Wnt signaling pathway.
(In general: A reporter such as luciferase makes a cellular process visible.)

Series [2] deals with Capan-2 cells. Description: Anti-proliferative activity on Capan-2 cells. The format is cell-based. As to conditions: Homo sapiens, Capan-2, 120 h; 5 days, CellTiter-Glo. The procedure: 2. Assay of Anti-Proliferative Activity on Capan-2 Cells
Capan-2 cells were planted in a white 96-well plate with 80 μL of cell suspension per well, which contained 5000 Capan-2 cells. The cell plate was placed in a carbon dioxide incubator for culture overnight.
The assay compound was serially diluted 3-fold with a discharge gun to the 9th concentration, that is, from 200 μM to 30 nM, in duplicate. 78 μL of medium was added to the middle plate, and then 2 μL of the serially diluted compound was transferred to each well of the middle plate according to the corresponding position. After mixing, 20 μL of the mixture was transferred to each well of the cell plate. The cell plate was incubated in a carbon dioxide incubator for 5 days. Another cell plate was prepared, and read on the day of drug addition. The signal value was used as the maximum value (The value of Max in the equation below) in data analysis. 25 μL of chemiluminescence detection reagent for cell viability was added to each well of this cell plate, and this cell plate was incubated at room temperature for 10 minutes to stabilize the luminescence signal. A multi-label analyzer was used to read results.
After the cell plate was cultured for 5 days, 25 μL of Promega CellTiter-Glo reagent was added to each well of the cell plate. The cell plate was incubated at room temperature for 10 minutes to stabilize the luminescence signal. A multi-label analyzer was used to read results.
The value of IC50 can be obtained by curve fitting. Table 2 provides the inhibitory activity of the compounds of the present disclosure on Capan-2 cell proliferation.
(In general: ATP-based viability assays read luminescence as a measure of living cells.)

A short description of series [3]: Pharmacokinetic evaluation of compounds in mice. Type of series: in vivo. As to conditions: mouse, plasma, male CD-1 mice; for clearance / bioavailability / half-life / Vd: IV 0.5 mg/kg; for bioavailability / AUC(0-t): PO 2.5 mg/kg; for half-life: read-out: T1/2 IV (converted); for Vd: read-out: Vdss; for AUC(0-t): read-out: AUC0-last PO; for Cmax: single dose, route not stated (IV 0.5 mg/kg, PO 2.5 mg/kg). On the procedure:
Assay 4: Pharmacokinetic Evaluation of Compounds
Assay purpose: Pharmacokinetics of compounds in […] mice was assayed.
CD-1 mice (male, 7-9 weeks old, Shanghai Slack)
The pharmacokinetic characteristics of rodents after intravenous (IV) and oral (PO) administration of compounds were assayed by standard protocols. In the assay, mice were given a single intravenous injection and oral administration. The vehicle for intravenous injection was water. The oral vehicle was 0.5% hypromellose. Four male CD-1 mice were used in this project. Two mice were administered intravenously at a dose of 0.5 mg/kg, and plasma samples were collected at 0 h (before administration) and 0.083, 0.25, 0.5, 1, 2, 4, 8, and 24 h after administration. The other two mice were orally administered by gavage at a dose of 2.5 mg/kg, and plasma samples were collected at 0 h (before administration) and 0.25, 0.5, 1, 2, 4, 8, and 24 h after administration. Whole blood samples within 24 hours were collected, and centrifuged at 3000 g for 15 minutes. The supernatant was separated to obtain a plasma sample, and protein was precipitated by adding 4 times volume of acetonitrile solution containing internal standard. The mixture was centrifuged to obtain a supernatant, and an equal volume of water was added to the obtained supernatant. The mixture was then centrifuged to obtain a supernatant for injection. The blood drug concentration was quantitatively analyzed by LC-MS/MS analysis method, and pharmacokinetic parameters were calculated, such as peak concentration (Cmax), clearance rate (CL), half-life (T1/2), […] (Vdss), area under the drug-time curve (AUC0-last), and bioavailability (F), etc.
The assay results are shown in Table 4: The compounds of the present disclosure have good pharmacokinetic properties.

The subject of series [4] is human pancreatic cancer Capan-2 xenograft tumor. The experiment in a line: In vivo drug efficacy on Capan-2 transplanted tumor in nude mice. The procedure: 3. Assay of In Vivo Drug Efficacy on Capan-2 Transplanted Tumor in Nude Mice
Capan-2 cells were cultured in McCoy's 5A medium, containing 10% fetal bovine serum FBS, in a 37° C. incubator with 5% CO2. Tumor cells were collected after passaging and growing to a suitable concentration and during the logarithmic growth phase. The cells resuspended in McCoy's 5A medium were counted and the cell suspension was adjusted to a concentration of 2×10^7/mL for inoculation.
Establishment of human pancreatic cancer Capan-2 xenograft tumor. Cells were collected and the concentration was adjusted to 2×10^7 (resuspend with McCoy's 5A medium to a cell suspension containing 50% Martigel). Under aseptic conditions, 0.1 mL of tumor cells was injected subcutaneously into the right back of the mouse, and the number of cells inoculated per mouse was 2×10^6. After the tumor was grown to a certain size, digital vernier calipers was used to measure the length (a) and width (b) of the tumor, and the tumor volume was calculated. The calculation formula of tumor volume (TV) was: TV=a×b^2/2.
Capan-2 tumor cells were inoculated. When the tumor was grown to about 150 cubic millimeters, mice were divided into groups with 6 mice in each group. The day of grouping was regarded as day 0, and the drug was administered on the day of grouping. During the assay, the animal's body weight and tumor size were measured twice a week, and the animal's clinical symptoms were observed and recorded every day. For each administration, the most recently weighed animal body weight was referred to.
The evaluation index of anti-tumor activity is relative tumor proliferation rate T/C (%), wherein T/C (%)>40% means ineffective, and T/C (%)<40% and statistically P<0.05 means effective. The calculation formula of T/C (%) is: T/C (%)=(TRTV/CRTV)×100%. TRTV is relative tumor volume of the treatment group, and CRTV is relative tumor volume of the negative control group. TGI (%)^b tumor inhibition rate=(average tumor volume or weight of negative control group-average tumor volume or weight of administration group)/average tumor volume or weight of negative control group×100%. TGI (%)^a=[(1−(average tumor volume of a certain administration group at the time of measurement-average tumor volume of the administration group at the beginning of the administration))/(average tumor volume of vehicle control group at the time of measurement-average tumor volume of the vehicle control group at the beginning of the administration)]×100%.

Setting [5] is: 5 mg/Kg, BID, 31 days, Capan-2 Xenograft model.

As usually defined, the IC50 is the concentration that inhibits the measured activity by half. A high value points to lower potency. Consider `Cc1cc(-c2ncc(CNc3nccn4c(C(=O)Nc5ccccc5)cnc34)cc2C)ccn1` [15 (formate)], for which the midpoint of inhibition in series [1], the IC50, lay at 0.15 nM.

For the molecule `Cc1cc(-c2ncc(CNc3nccn4c(-c5cccnc5)cnc34)cc2C)ccn1` [Compound 2], the IC50 in series [1] is 0.12 nM; in series [2] it was 4.26 nM.

In turn, `Cc1cc(-c2ncc(CNc3nccn4c(-c5ccc(F)cc5)cnc34)cc2C)ccn1` [Compound 3] had an IC50 in series [1] of 0.96 nM.

For `Cc1cc(-c2ncc(CNc3nccn4c(-c5cnn(C)c5)cnc34)cc2C)ccn1` [Compound 4], the IC50 in series [1] was determined as 0.14 nM; in series [2], 964 nM.

In turn, `Cc1cc(-c2ncc(CNc3nccn4c(N5CCNCC5)cnc34)cc2C)ccn1` [Compound 5] returned an IC50 in series [1] of 9.7 nM.

In the case of `CC(=O)N1CCN(c2cnc3c(NCc4cnc(-c5ccnc(C)c5)c(C)c4)nccn23)CC1` [Compound 6], the IC50 in series [1] is 0.58 nM.

Consider `Cc1cc(-c2ncc(CNc3nccn4c(-c5ccc(C#N)cc5)cnc34)cc2C)ccn1` [Compound 8], for which the results for the IC50 in series [1] and in series [2] were 6.56 nM and 109 nM, respectively.

On to `COc1ccc(-c2cnc3c(NCc4cnc(-c5ccnc(C)c5)c(C)c4)nccn23)cc1` [Compound 9 (formate)], for which the IC50 in series [1] came to 8.95 nM; in series [2] it was 103 nM.

With `Cc1cc(-c2ncc(CNc3nccn4c(C5CC5)cnc34)cc2C)ccn1` [Compound 10], the IC50 in series [1] is 13.5 nM; in series [2] it was above 1000 nM.

With `Cc1cc(-c2ncc(CNc3nccn4c(C5CCN(C(C)C)CC5)cnc34)cc2C)ccn1` [Compound 13 (formate)], in series [1], the IC50 stood at 0.56 nM. This counts as sub-nanomolar.

In series [1], `CC(=O)N1CCC(c2cnc3c(NCc4cnc(-c5ccnc(C)c5)c(C)c4)nccn23)CC1` [Compound 14] yielded an IC50 below 0.001 nM.

As to `Cc1cc(-c2ncc(CNc3nccn4c(C(=O)N(C)C)cnc34)cc2C)ccn1` [Compound 16], the IC50 in series [1] was below 0.001 nM.

For `Cc1cc(-c2ccc(CNc3nccn4c(-c5ccccc5)cnc34)cc2C)ccn1` [Compound 17], the values for the IC50 in series [1] and in series [2] were 0.23 nM and 1.45 nM, respectively.

For the molecule `Cc1cc(CNc2nccn3c(-c4ccccc4)cnc23)cnc1-c1ccnn1C` [Compound 18], the IC50 in series [1] came out at 0.0128 nM; in series [2] it was 19.1 nM.

`Cc1cc(-c2ccc(CNc3nccn4c(-c5ccccc5)cnc34)cn2)ccn1` [Compound 19]: the IC50 came to 0.017 nM in series [1] and 4.61 nM in series [2].

Take `COc1cc(-c2ncc(CNc3nccn4c(-c5ccccc5)cnc34)cc2C)ccn1` [Compound 20]: the 50% inhibitory concentration (IC50) in series [1] is 0.4 nM; in series [2], 18.5 nM.

Take `Cc1cc(-c2ncc(CNc3nccn4c(-c5ccccc5)cnc34)cc2F)ccn1` [Compound 21]: in series [2], the IC50 was determined as 0.43 nM.

Broadly, the clearance is the volume of plasma or blood freed of the substance per unit of time. Read a high clearance as a high capacity for elimination. The term bioavailability denotes the share of a dose that reaches the circulation, judged against a reference dose that is usually intravenous. As usually defined, the Cmax is the highest concentration seen after dosing. On to `Cc1cc(-c2ccc(CNc3nccn4c(-c5ccccc5)cnc34)cc2C#N)ccn1` [Compound 22 (formate)], for which, in series [2], the midpoint of inhibition, the IC50, lay at 1.24 nM. Also, in series [3], the clearance was 8.24 mL/min/kg, the bioavailability is 71.9%, the half-life is 3.13 h and the Vd turned out to be 1.09 L/kg. Further, in series [3], the AUC(0-t) is 11.9 µM·h and the Cmax worked out at 1820 nM.

`Cc1cc(-c2ccc(CNc3nccn4c(-c5ccccc5)cnc34)cc2N(C)C)ccn1` [Compound 23]: the 50% inhibitory concentration (IC50) in series [2] is 0.74 nM.

In series [1], `Cc1cc(-c2ncc(CNc3nccn4c(-c5cccc(Cl)c5)cnc34)cc2C)ccn1` [Compound 28 (hydrochloride)] had a 50% inhibitory concentration (IC50) of 0.86 nM. This molecule had an IC50 in series [2] of 1.43 nM. In series [3], the clearance amounted to 4.16 mL/min/kg, the bioavailability was 66.6%, the half-life is 2.6 h and the Vd was found to be 0.553 L/kg. For the same molecule, in series [3], the AUC(0-t) was determined as 15.1 µM·h and the maximum concentration (Cmax) amounted to 2340 nM.

Turning to `Cc1cc(-c2ncc(CNc3nccn4c(-c5cccc(F)c5)cnc34)cc2C)ccn1` [Compound 29 (hydrochloride)], 0.38 nM corresponded to half-maximal inhibition in series [1] (IC50). This molecule also yielded an IC50 in series [2] of 0.35 nM. Besides, in series [3], the clearance came to 5.05 mL/min/kg, the bioavailability amounted to 89%, the half-life is 2.78 h and the Vd was 0.641 L/kg. Further, in series [3], the AUC(0-t) was 17.3 µM·h and the Cmax worked out at 2640 nM.

As to `Cc1cc(-c2ccc(CNc3nccn4c(-c5ccccc5)cnc34)c(F)c2)ccn1` [Compound 31], in series [2], it took 4.7 nM to reach half-maximal inhibition (IC50).

In the case of `Cc1cc(-c2ncc(C(C)Nc3nccn4c(-c5ccccc5)cnc34)cc2C)ccn1` (stereo not drawn) [Compound 32 (hydrochloride)], in series [2], inhibition was half-maximal at 3.04 nM (IC50).

In the case of `Cc1cc(-c2ncc(CNc3nccn4c(-c5cc(F)cc(F)c5)cnc34)cc2OC2CCN(C)CC2)ccn1` [Compound 34], the IC50 in series [2] was found to be 1.9 nM. Compared with the last molecule, the IC50 is about 1.6-fold lower.

For the molecule `Cc1cc(-c2ncc(C(CO)Nc3nccn4c(-c5ccccc5)cnc34)cc2C)ccn1` (stereo not drawn) [Compound 35], the IC50 in series [2] was determined as 10.1 nM. This IC50 is about 5.3-fold higher than that of the molecule before.

In the case of `Cc1cc(-c2ncc(CC(=O)Nc3ccc(-c4cnccn4)cn3)cc2C)ccn1` [LGK974, reference compound], the “inhibitory effect on human pancreatic cancer Capan-2 xenograft tumor (in words)” value in series [4] (5 mg/Kg BID (twice a day) for 31 days) was “inhibitory effect”. Also, in series [4] (setting [5]), the T/C % amounted to 36.33% and the TGI % is listed as 78.3%.
